The test system of assay [1] is L-cells transfected with E-selectin. The assay can be described thus: static adhesion of neutrophils to L-cells transfected with E-selectin (myeloperoxidase readout). To be noted: for adhesion of neutrophils to E-selectin transfected L-cells: preincubation 45 min, adhesion 20 min at 37° C., static assay; for order of potency of lead compounds: proposed from the adhesion experiments. Type of assay: cell-based, human. The method, then: L-cells permanently transfected with full-length E-selectin by electroporation. Human neutrophils were isolated from EDTA whole blood by density centrifugation. Purity and total number were determined by standard haematology instruments, L-cells were grown in 96-well microtiter plates.
L-cells and neutrophils were pre-incubated with respective substances for 45 min at 37° C. Neutrophils were then allowed to adhere to L-cells in the presence of different substances for 20 min at 37° C. Non-adherent cells were removed by repeated washings and the number of adherent cells determined by measuring myeloperoxidase content. Since binding of neutrophils to selectin is calcium dependent, EGTA (which chelates calcium) was used as a negative control.
L-cells and neutrophils were preincubated with decreasing concentrations of maltose, fucose, and thymidine (1 mM, 10 μM, 0.1 μM, and 1 nM) for 45 min at 37° C. Neutrophils were then allowed to adhere to L-cells in the presence of respective substances for 20 min at 37° C. Non-adherent cells were removed by repeated washings and the number of adherent cells determined by measuring myeloperoxidase content.
L-cells were grown in 96-well microtiter plates. L-cells and neutrophils were preincubated with decreasing concentrations of EGTA (10 mM, 1 mM, 0.1 mM, 10 μM) for 45 min at 37° C. Neutrophils were then allowed to adhere to L-cells in the presence of EGTA for 20 min at 37° C. Non-adherent cells were removed by repeated washings and the number of adherent cells was determined by measuring myeloperoxidase content.

In assay [2] the target is T1, myeloperoxidase (Homo sapiens, UniProt P05164).
T1 construct: endogenous in cells; host or cells: human neutrophils isolated from EDTA whole blood
T1 sequence (P05164 279-745 limits assumed): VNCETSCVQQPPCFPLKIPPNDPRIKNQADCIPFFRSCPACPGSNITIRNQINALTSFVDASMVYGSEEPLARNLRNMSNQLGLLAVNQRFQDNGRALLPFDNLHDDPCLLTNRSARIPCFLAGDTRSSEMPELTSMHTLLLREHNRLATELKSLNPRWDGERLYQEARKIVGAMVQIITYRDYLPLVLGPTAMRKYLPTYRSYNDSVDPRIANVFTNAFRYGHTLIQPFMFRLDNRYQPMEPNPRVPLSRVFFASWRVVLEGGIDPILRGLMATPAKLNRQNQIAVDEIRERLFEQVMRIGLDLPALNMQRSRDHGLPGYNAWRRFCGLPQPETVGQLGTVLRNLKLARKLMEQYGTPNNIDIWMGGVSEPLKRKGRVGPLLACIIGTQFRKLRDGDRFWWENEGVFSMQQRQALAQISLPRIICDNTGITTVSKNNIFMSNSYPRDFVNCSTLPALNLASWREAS
T1 sequence (P05164 165-273 limits assumed): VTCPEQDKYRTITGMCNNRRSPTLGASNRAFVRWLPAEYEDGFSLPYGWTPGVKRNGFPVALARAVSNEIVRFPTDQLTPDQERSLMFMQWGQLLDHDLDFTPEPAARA
Kind of assay: effect on neutrophil myeloperoxidase activity. The format is cell-based. Conditions: neutrophils, 100 μM to 10 nM, 2 hours at 37° C. How it is done:
Since the number of adherent neutrophils are calculated by measuring neutrophil myeloperoxidase activity, it could be argued that these substances could have a direct effect on myeloperoxidase activity and thus create a methodological artifact. Neutrophils were incubated with different concentrations of uridine, isomaltitol, and 4-thiouridine (100 μM, 10 μM, 1 μM, 100 nM, 10 nM) for 2 hours at 37° C.

In assay [3] the test system is TNF stimulated HUVEC. The assay can be described thus: neutrophil adhesion to TNF stimulated HUVEC. Type of assay: cell-based, human. Conditions: for adhesion of neutrophils to TNF stimulated / activated HUVEC (in words) / inhibition of adhesion of neutrophils to TNF stimulated HUVEC: HUVEC stimulated with TNF 4 h; for inhibition of adhesion of neutrophils to TNF stimulated HUVEC: neutrophils preincubated 30 min at 37° C. The method, then: To further extend the finding from L-cells the binding of neutrophils to TNF activated endothelium (HUVEC) was studied.
Endothelial cells were grown in 96-well microtiter plates to confluence. They were stimulated with TNF for 4 h at 37° C. Isolated neutrophils were incubated for 30 min at 37° C. with respective substances. The endothelial cells were washed after 4 h and 2×10^5 neutrophils were added to each well and the cells were allowed to adhere in the presence of the respective substances.

For assay [4], the system named is E-selectin. The assay can be described thus: cell-ELISA of surface expression of E-selectin on stimulated endothelial cells. Type of assay: cell-based, human. To be noted: simultaneous incubation of endothelium with different concentrations, 4 h at 37° C. How it is done:
The substances mentioned above should block the interaction of E-selectin with it's ligand and should not have any effect on cytokine induced up-regulation of adhesion molecules. A cell-ELISA was performed to assess the surface expression of adhesion molecules. Endothelial cells were grown in microtiter plates, stimulated with TNF or IL-1 with or without respective substances for 4 h at 37° C. After stimulation the cells were washed and fixed with formaldehyde. A cell-ELISA was performed in analogy to regular ELISA using primary and secondary antibodies.
In general terms: In an ELISA, binding on a coated surface is turned into a signal by an enzyme label.

Assay [5] deals with Colo 201 cells / L-cells transfected with E-selectin. The assay can be described thus: adhesion of colon cancer cells Colo 201 to L-cells transfected with E-selectin. The format is cell-based. To be noted: E-selectin transfected L-cells (text of b26 says HUVEC). The method, then:
Although protein ligands have been characterised for the selectins, they recognise a number of carbohydrate and non-carbohydrate ligands. The hypothesis is that these compounds should block E-selectin-SLe^x interaction. To confirm this it was also tested if these substances can block adhesion of Colo 201 cells to L-cells.

Entries after “also recorded” stand apart in the source; their conditions may differ.

In the case of `OC[C@H]1O[C@H](O[C@H]2[C@H](O)[C@@H](O)C(O)O[C@@H]2CO)[C@H](O)[C@@H](O)[C@@H]1O` (mixture of isomers) [Maltose, maltose, reference compound], the “adhesion of neutrophils to E-selectin transfected L-cells” value in assay [1] is on record as “did not affect the adhesion of neutrophils”.
Take `O=c1[nH]c(=S)ccn1[C@@H]1O[C@H](CO)[C@@H](O)[C@H]1O` [4-thiouridine]: the myeloperoxidase activity entry in assay [2] is “do not affect myeloperoxidase activity”. Moreover, in assay [3], the “adhesion of neutrophils to TNF stimulated / activated HUVEC (in words)” value is given as “dose dependent inhibition” and the “inhibition of adhesion of neutrophils to TNF stimulated HUVEC” value was determined as 60%. For the same compound, in assay [3] (TNF stimulated HUVEC), the “concentration level at which the maximal effect on neutrophil adhesion to HUVEC occurs” value is recorded as “micromolar levels”. Further, the “TNF induced up-regulation of E-selectin” value in assay [4] is recorded as “did not affect TNF induced up-regulation of E-selectin”. Further, in assay [1], the “adhesion of neutrophils to E-selectin transfected L-cells” value is reported as “could block adhesion of neutrophils” and the “order of potency of lead compounds” value is reported as 4-thiouridine>isomaltitol>uridine.
Regarding `O=C(O)CN(CCOCCOCCN(CC(=O)O)CC(=O)O)CC(=O)O` [EGTA, reference compound], the “adhesion of Colo 201 cells” value in assay [5] is “blocked adhesion of Colo 201 cells”. Besides, in assay [3], the “adhesion of neutrophils to TNF stimulated / activated HUVEC (in words)” value is given as “blocked adhesion of neutrophils; also recorded: dose dependent inhibition of neutrophils adhesion to activated HUVEC”. Further, in assay [1], the “adhesion of neutrophils to E-selectin transfected L-cells” value was “consistently blocks adhesion of neutrophils; also recorded: dose dependent inhibition of neutrophils adhesion to L-cells”.
Turning to `C[C@H](O)[C@@H](O)[C@@H](O)[C@H](O)C=O` [fucose, reference compound], in assay [1], the “adhesion of neutrophils to E-selectin transfected L-cells” value is “did not affect the adhesion of neutrophils”.
With `OC[C@H](O)[C@@H](O)[C@H](O)[C@H](O)CO[C@H]1O[C@H](CO)[C@@H](O)[C@H](O)[C@H]1O` [isomaltitol], the myeloperoxidase activity entry in assay [2] is on record as “do not affect myeloperoxidase activity”. The “inhibition of adhesion of neutrophils to TNF stimulated HUVEC” value in assay [3] is “roughly 30%”. Besides, in assay [1], the “adhesion of neutrophils to E-selectin transfected L-cells” value was “could block adhesion of neutrophils” and the “order of potency of lead compounds” value is 4-thiouridine>isomaltitol>uridine.
With `Cc1cn([C@H]2C[C@H](O)[C@@H](CO)O2)c(=O)[nH]c1=O` [thymidine, reference compound], in assay [1], the “adhesion of neutrophils to E-selectin transfected L-cells” value is “did not affect the adhesion of neutrophils”.
For the compound `O=c1ccn([C@@H]2O[C@H](CO)[C@@H](O)[C@H]2O)c(=O)[nH]1` [uridine], the myeloperoxidase activity result in assay [2] is recorded as “do not affect myeloperoxidase activity”. In assay [1], the “adhesion of neutrophils to E-selectin transfected L-cells” value is listed as “could block adhesion of neutrophils” and the “order of potency of lead compounds” value is listed as 4-thiouridine>isomaltitol>uridine.
